Experimental data taken from a melting point compilation (Tetko et al.; mined from patent text by program, amines drawn as free bases though some values may be those of a salt).

SMILES	melting point
O=C(O)CN(Cc1ccccc1)C(=O)CCc1nc2c(F)c(F)cc(F)c2s1	144 to 146 °C
O=C(Nc1ccccc1N1CCc2ccccc21)c1ccccc1	73 to 76 °C
Clc1ccc(Nc2nnc(Cc3ccncc3)c3c2CCCC3)cc1	258 to 261 °C
N#Cc1cc(-c2ccoc2)c2ccc(OCc3cccc(-c4ccccc4)n3)cc2c1	131 to 133 °C
N#Cc1ccc(C(=O)NCCC(=O)NC(CC(=O)OCc2ccccc2)C(=O)NC(Cc2ccccc2)C(=O)OCc2ccccc2)nc1 (centres undefined)	157 to 158 °C
CCCCC(=O)c1cc2n(c1)CCc1ccccc1C2=O	135 to 136 °C
Nc1nc2c(sc(=O)n2COCCO)c(=O)[nH]1	230 to 232 °C
COc1ccc(CNC(=O)c2cc3c(=O)n(Cc4ccc(C(=O)O)cc4)cnc3cn2)cc1	245 to 246 °C
Nc1cccc2c1=NC(=O)C=2c1ccccc1	226 to 230 °C
Cn1ccc(-c2cccc(C=O)n2)n1	98 to 100 °C
CCOC(=O)c1cn(C2CC2)c2c(F)c(F)c(F)c(NCc3ccccc3)c2c1=O	134 to 135 °C
CCOc1ccc(CN2C(=O)C(C)(c3ccccc3Cl)c3cc(Cl)ccc32)c(OC)c1 (centres undefined)	124 °C
Clc1ccc(C2=CCCC2)cn1	59 to 60 °C
CC1CCN(c2ccccc2C(C)C(C(N)=O)c2ccc(C(=O)O)cc2)CC1 (centres undefined)	173 to 175 °C
NC(=O)N(C(=O)c1c(F)cccc1Cl)c1ccc(SC(F)(F)F)cc1	202 °C
CC(=O)Nc1c(OCc2ccccc2)cc(Br)cc1N(C)C	177 °C
COc1cccc(-c2ccc(C(=O)NCCOc3ccc(CC(Oc4ccc(C(C)C)cc4)C(=O)O)cc3)cc2)c1 (centres undefined)	138 to 139 °C
COC1=C(OC)C(=O)C2=C(CC(CO)(CCCCCCCCO)C2)C1=O	59 to 61 °C
CCc1cc(CCCc2ccc(CO)c(CO)c2)ccc1O	82 °C
Cc1cccc2c1cc(C(=O)NCC1CCN(CC3(O)CCOCC3)CC1)c(=O)n2C(C)C	222 °C

SMILES	melting point
OC1CSC(Oc2ccccc2-c2ccno2)C(O)C1O (centres undefined)	200 °C
COc1ccc2oc(-c3ccccc3)c(CC#N)c2c1	106 to 107 °C
NC(=O)NCc1cc(Cl)cc(-c2csc(N=C(N)N)n2)n1	> 300 °C
CCc1ccc(C(=O)c2ccccc2C(=O)O)c(CC)c1	115 to 118 °C
CCCCNC(=O)C=C(C)C=CC=C(C)C=Cc1c(C)cc(OC)c(C)c1C	178 °C
CC1(C)C(=O)NC(=O)c2c1ccc1nc(Nc3c(Cl)cccc3Cl)sc21	> 300 °C
Cc1ccc(S(=O)(=O)NC(=O)c2nc(Cl)c(Cl)[nH]2)cc1	238 °C
CCOCc1nc2c(N)nc3cc(Br)ccc3c2n1CC1CCN(S(C)(=O)=O)CC1	233 to 234 °C
CCOC(=O)C1Cc2c(OC)ccc(OC)c2CO1 (centres undefined)	59.8 °C
Cc1n[nH]c(-c2ccncc2)c1-c1ccccc1	164 to 165 °C
O=C(O)c1cccc(-c2nc3cc(N4CCCC4)ccc3o2)c1	248 to 250 °C
O=S(=O)(/C=C/c1ccc(I)cc1)CS(=O)(=O)/C=C/c1ccc(I)cc1	253 to 255 °C
O=C1OC(c2cccc(C(F)(F)F)c2)=NC1=Cc1cccs1	200 to 202 °C
O=C1N(Cc2noc(C(F)(F)F)n2)c2ccccc2C12COc1cc3c(cc12)OCO3 (centres undefined)	139 to 140 °C
Fc1ccc(-c2c3cccc(C(F)(F)F)c3nn2Cc2ccc(F)cc2Cl)cc1	78 °C
CNc1ccc(C(C)(C)c2ccc(C(C)(C)c3ccc(NC)cc3)cc2)cc1	115 to 122 °C
CN(c1cccc2cc(C3=NCC(C)(CN4CCN(S(C)(=O)=O)CC4)S3)[nH]c12)S(=O)(=O)c1cccs1 (centres undefined)	209 to 210 °C
N=C(NO)c1ccc(-c2ccc([N+](=O)[O-])c(C(F)(F)F)c2)o1	221 °C
CCCCCCCNC(=O)Oc1ccc2ncccc2c1	78 °C
